According to patent EP0284180A1, “Prostaglandins E and anti ulcers containing same” (Kabushiki Kaisha Ueno Seiyaku Oyo Kenkyujo, priority 1987, dated 1988):
Like-named read-outs stand apart in the source and are kept apart here.

How the values were obtained:
[1] = tested on: indomethacin-induced ulcers; experiment: Indomethacin-induced ulcers (indomethacin ulcer preventing effect); type: in vivo, male rats of the Crj : Wistar strain; details: rats; for ED50: ulcer inhibition rate (Table 2); for Ulcer index (aver. ± SE): indomethacin 10 mg/kg oral ulcer, index 0-4
Method: (§1) As test samples, we used the PGE as obtained in Examples 2 to 52 as described herein, 13,14-dihydro-15-keto-PGE2 (produced by Funakoshi & Co.) being employed as a control reference.
(§2) Each group of test animals used consisted of 8 to 10 male rats of the Crj : Wistar strain, weighing 180 to 230 g. Test animals were fasted for 24 hours before the oral administration of the test samples; in the case of development of confinement-stress induced ulcers through immersion in water, 10 minutes after oral administration of the test specimens, the aminals were confined in a stress cage developed by Univ. of Tokyo, then immersed up to the ensiform process of sternum in water at 23°C for 4 hours and sacrificed; in the case of formation of indomethacin-induced ulcers, shortly after the materials were given, animals were given indomethacin orally at a dose of 10 mg/kg and sacrificed after 5 hours.
(§3) The stomacks were taken out, followed by fixation with 1 % formalin, and incised along the greater curvature to carry out investigation under an illuminated magnifier for ulceration. The degree and extent of lesion and ulcer were rated based on the ulceration index being classified into the following five numerical categories: • 0: normal, with no lesion detected; • 1: bleeding or erosion of mucosa; • 2: development of less than 5 small ulcers (not greater than 2 mm in diameter); • 3: generation of not less than 5 small ulcers or a large ulcer (not less than 2 mm in diameter); • 4: generation of not less than 2 large ulcers.
(§4) On the basis of the criteria that the rats with the ulceration index of not less than "2", the ulcer inhibition rate (EDso) was calculated from ulcer-generation ratio in the control and the ratio of the test specimens.

[2] = tested on: confinement-stress induced ulcers through immersion in water; experiment: Confinement-stress induced ulcers through immersion in water (hydrorestraint stress ulcer preventing effect); type: in vivo, male rats of the Crj : Wistar strain; details: for inhibition at 0.3 mg/kg: dosage 0.3 mg/kg; for inhibition at 1 mg/kg: dosage 1 mg/kg; for inhibition at 3 mg/kg: dosage 3 mg/kg; for inhibition at 10 mg/kg: dosage 10 mg/kg; for inhibition at 5 mg/kg: dosage 5 mg/kg; for ulcer inhibiting effect: conclusion in words from Table 3
Method: as §1, §2, §3, §4

ileum = experiment: Intestinal constriction effect, isolated ileum in Magnus tube; parameters: species or system male Wister rat; details: rat ileum, constriction relative to acetylcholine, ED50 class
Method: A male Wister rat (of 250 - 300g in weight) was struck to death, and immediately its carotid artery was cut to dehematize. An ileum portion located about 10 cm from the cecum was extracted, and after its contents were washed away with a Tyrode liquid, a 1.5 - 2 cm long part of it was cut off and hung in a Magnus tube.
The constriction of the ileum was brought to rest for 15 - 20 minutes until the ileum was allowed to be stabilized, and subsequently the ileum was constricted with […]/mt of acetylcholine. After constructions of same magnitude were had two times, the material to be tested was cumulatively administered at one- minute intervals.
Constrictions with the material tested were expressed in terms of ratios, based on constriction per 10 g/m t of acetylcholine, and values for ED50 were determined. + : EDso < 10^-6 M ±: 10^-4 M ≦ ED50 ≦ 10^-6 M -: 10^-4 M < ED50

uterus = experiment: Uterine constriction, isolated uterus in Magnus tube; parameters: species or system female rat; details: rat uterus, constriction relative to 1 mU oxytocin = 100, EC50 class; read-out: Uterus constriction effect
Method: A female rat (of 150g in weight) was dehematized to death, and its uterus was taken out, which was cut to a length of 1.5 - 2.5 cm. The cut uterus was hung in a magnus tube. The uterus was constricted several times with 1 mU Oxytocin. After stable uterine movement was obtained, the material to be tested was independently administered. Constrictions with the material were expressed in terms of ratios based on constriction of 1 mU of oxytocin = 100, and values of EC50 were determined on the following standards. +:EC50 < 10^-7 M ±:10^-5 M ≦ EC50 ≦ 10^-7 M -: 10^-5 M < ECso

trachea = experiment: Tracheal relaxation, isolated tracheal rings constricted with histamine; parameters: species or system male gunea pig; details: guinea pig trachea, inhibition of constriction under histamine 5.4 x 10^-4 M, IC50 class, read-out: Tracheal relaxation effect
Method: A male gunea pig (of about 300 g in weight) was struck to death, and its artery was cut to dehematize. Its trachea, after having been extracted, was cut open lengthwise on the opposite side to the trachea smooth muscle, and seven tracheal rings were connected by string in a chain-like pattern, same being hung in a Magnus tube.
Trachea was brought to rest for 60 - 90 minutes and until tracheal equilibrium was reached. Thereafter, 5.4 x 10 ^-4 M of histamine was administered in such manner that it was cumulatively administered at 6 minutes' intervals after a constriction peak was reached. Tracheal relaxation with the material tested was expressed in terms of ratio of constrictional inhibition under histamine administering, and values for IC50 were determined. + : IC50 < 10^-7 M ± : 10^-5 M ≦ IC50 ≦ 10^-7 M -: 10^-5 M < IC50

[3] = Rattus norvegicus, indomethacin ulcer, oral, dosage 1 mg/kg, read-out: Inhibition factor (%)
[4] = Rattus norvegicus, indomethacin ulcer, oral, dosage 3 mg/kg, read-out: Inhibition factor (%)
[5] = Rattus norvegicus, indomethacin ulcer, oral
[6] = Rattus norvegicus, stress ulcer, rats, oral, read-out: Inhibition factor (%)
[7] = Rattus norvegicus, stress ulcer, rats, oral, ulcer inhibition rate, ulceration index not less than 2 counted (Table 1), read-out: ED50
[8] = Rattus norvegicus, indomethacin ulcer, oral, dosage 10 mg/kg, read-out: Inhibition factor (%)
[9] = Rattus norvegicus, po, hydrorestraint stress-ulcer preventing effect, procedure of Test Example 1 (Table 3), read-out: Ulcer inhibiting effect ED50
[10] = Rattus norvegicus, indomethacin ulcer, oral, dosage 20 mg/kg, read-out: Inhibition factor (%)

## CCCCCC(=O)CC[C@H]1[C@H](O)CC(=O)[C@@H]1CC(=O)CCCCC(=O)OC [(8)]
[1]; [3]
  inhibition at 1 mg/kg: 14.3%
[1]; [4]
  inhibition at 3 mg/kg: 42.9%
[1]; [5]
  ED50: 3.8 mg/kg
[1]; dosage 1 mg/kg
  Ulcer index (aver. ± SE): 2.3±0.4
[1]; dosage 3 mg/kg
  Ulcer index (aver. ± SE): 1.7±0.3
[2]; [6]
  inhibition at 0.3 mg/kg: 30.6%
  inhibition at 1 mg/kg: 62.5%
[2]; [7]
  ED50: 0.6 mg/kg

## CCOC(=O)CCCCC(=O)C[C@H]1C(=O)C[C@@H](O)[C@@H]1CCC(=O)CCCC(C)C [(36)]
[2]; [6]
  inhibition at 0.3 mg/kg: 22.6%
  inhibition at 1 mg/kg: 57%
[2]; [7]
  ED50: 0.8 mg/kg

## CCCCCC(=O)CC[C@H]1[C@H](O)CC(=O)[C@@H]1C/C=C\CCCC(=O)OCC [(3)]
[1]; [4]
  inhibition at 3 mg/kg: 42.9%
[1]; [8]
  inhibition at 10 mg/kg: 71.4%
[1]; [5]
  ED50: 4.4 mg/kg
[1]; dosage 3 mg/kg
  Ulcer index (aver. ± SE): 1.7±0.4
[1]; dosage 10 mg/kg
  Ulcer index (aver. ± SE): 1.0±0.3
[2]; [6]
  inhibition at 1 mg/kg: 25%
  inhibition at 3 mg/kg: 86.1%
  inhibition at 10 mg/kg: 100%
[2]; [7]
  ED50: 1.5 mg/kg

## CCCCCC(=O)CC[C@H]1[C@H](C)CC(=O)[C@@H]1CC(=O)CCCCC(=O)OC [(38)]
[2]; [6]
  inhibition at 0.3 mg/kg: 8.1%
  inhibition at 1 mg/kg: 45.9%
  inhibition at 3 mg/kg: 79.7%
[2]; [7]
  ED50: 1.5 mg/kg

## CCCCC[C@H](O)/C=C/[C@H]1[C@H](O)CC(=O)[C@@H]1C/C=C\CCCC(=O)OCC [B]
ileum
  EC50: < 1000 nM
uterus
  EC50: 100 to 10000 nM
trachea
  IC50: < 100 nM
[2]; [9]
  ED50: 0.4 mg/kg

## CCCCCC(=O)CC[C@H]1[C@H](O)CC(=O)[C@@H]1C/C=C\CCCC(=O)OC(C)C [(5)]
[2]; [6]
  inhibition at 1 mg/kg: 14.3%
  inhibition at 5 mg/kg: 44%
[2]; [7]
  ED50: 6.5 mg/kg

## CCCCCCC(=O)CC[C@H]1[C@H](O)CC(=O)[C@@H]1CC(=O)CCCCC(=O)OCC [(37)]
[2]; [6]
  inhibition at 1 mg/kg: 8.1%
  inhibition at 3 mg/kg: 45.9%
[2]; Rattus norvegicus, stress ulcer, rats, oral, dosage 6 mg/kg, read-out: Inhibition factor (%)
  inhibition at 6 mg/kg: 79.7%
[2]; [7]
  ED50: 3 mg/kg

## CCCCC[C@H](O)/C=C/[C@H]1[C@H](O)CC(=O)[C@@H]1C/C=C\CCCC(=O)O [A]
ileum
  EC50: < 1000 nM
uterus
  EC50: < 100 nM
trachea
  IC50: < 100 nM
[2]; [9]
  ED50: 0.5 mg/kg

## CCCCCC(=O)CC[C@H]1[C@H](O)CC(=O)[C@@H]1C/C=C\CCCC(=O)OCC [Material (3), 13, 14-dihydro-15-keto-PGE2 ethyl ester]
ileum
  EC50: > 100000 nM
uterus
  EC50: > 10000 nM
trachea
  IC50: > 10000 nM
[2]; [9]
  ED50: 1.5 mg/kg
[2]
  ulcer inhibiting effect: a high degree of ulcer inhibiting effect

## CCCCCC(=O)CC[C@H]1[C@H](O)CC(=O)[C@@H]1CCCCCCC(=O)OCC [(7)]
[2]; [6]
  inhibition at 3 mg/kg: 37.5%
  inhibition at 10 mg/kg: 75%
[2]; [7]
  ED50: 4.5 mg/kg

## CCCCCC(=O)CC[C@H]1[C@H](O)CC(=O)[C@@H]1CC(=O)CCCCC(=O)OCC (racemic) [(11)]
[1]; [4]
  inhibition at 3 mg/kg: 0%
[1]; [8]
  inhibition at 10 mg/kg: 50%
[1]; [5]
  ED50: 10 mg/kg
[1]; dosage 3 mg/kg
  Ulcer index (aver. ± SE): 2.6±0.3
[1]; dosage 10 mg/kg
  Ulcer index (aver. ± SE): 2.0±0.2
[2]; [6]
  inhibition at 1 mg/kg: 25%
  inhibition at 3 mg/kg: 57.1%
  inhibition at 10 mg/kg: 85.7%
[2]; [7]
  ED50: 2.4 mg/kg

## CCCCCC(=O)CC[C@H]1[C@H](C)CC(=O)[C@@H]1CC(=O)CCCCC(=O)OCC [(39)]
[2]; [6]
  inhibition at 0.3 mg/kg: 30.2%
  inhibition at 1 mg/kg: 77.5%
  inhibition at 3 mg/kg: 85.3%
[2]; [7]
  ED50: 0.5 mg/kg

## CCCCCC(=O)CC[C@H]1[C@H](O)CC(=O)[C@@H]1C/C=C\CCCC(=O)O [(1)]
[1]; [10]
  inhibition at 20 mg/kg: 4%
[1]; [5]
  ED50: > 20 mg/kg
[1]; dosage 20 mg/kg
  Ulcer index (aver. ± SE): 2.4±0.4
[2]; Rattus norvegicus, stress ulcer, rats, oral, dosage 20 mg/kg, read-out: Inhibition factor (%)
  inhibition at 20 mg/kg: 6.3%
[2]; [7]
  ED50: > 20 mg/kg

## CCCCCC(=O)CC[C@H]1[C@H](O)CC(=O)[C@@H]1CC(=O)CCCCC(=O)OCCCC [(10)]
[2]; [6]
  inhibition at 1 mg/kg: 25.5%
  inhibition at 3 mg/kg: 78.4%
[2]; [7]
  ED50: 1.5 mg/kg

## CCCCCC(=O)CC[C@H]1[C@H](O)CC(=O)[C@@H]1C/C=C\CCCC(=O)O [Material (1), 13, 14-dihydro-15-keto-PGE2, reference compound]
ileum
  EC50: > 100000 nM
uterus
  EC50: 100 to 10000 nM
trachea; Cavia porcellus
  IC50: 100 to 10000 nM
[2]; [9]
  ED50: > 20 mg/kg
[2]
  ulcer inhibiting effect: no pharmacological or physiological effect
[2]; conclusion in words from Tables 1 and 2
  antiulcerative effect: no antiulcerative effect

## CCCCCC(=O)CC[C@H]1[C@H](O)CC(=O)[C@@H]1C/C=C\CCCC(=O)OCCC [(4)]
[2]; [6]
  inhibition at 1 mg/kg: 16.7%
  inhibition at 5 mg/kg: 44.4%
[2]; [7]
  ED50: 7 mg/kg

## CCCCCC(=O)CC[C@H]1[C@H](O)CC(=O)[C@@H]1CCCCCCC(=O)OC [(6)]
[2]; [6]
  inhibition at 3 mg/kg: 28%
  inhibition at 10 mg/kg: 72.2%
[2]; [7]
  ED50: 5.5 mg/kg

## CCCCCC(=O)CC[C@H]1[C@H](O)CC(=O)[C@@H]1C/C=C\CCCC(=O)OC [(2)]
[1]; [4]
  inhibition at 3 mg/kg: 30%
[1]; Rattus norvegicus, indomethacin ulcer, oral, dosage 6 mg/kg, read-out: Inhibition factor (%)
  inhibition at 6 mg/kg: 50%
[1]; [10]
  inhibition at 20 mg/kg: 100%
[1]; [5]
  ED50: 6 mg/kg
[1]; dosage 3 mg/kg
  Ulcer index (aver. ± SE): 1.9±0.4
[1]; dosage 6 mg/kg
  Ulcer index (aver. ± SE): 1.4±0.3
[1]; dosage 20 mg/kg
  Ulcer index (aver. ± SE): 0.4±0.2
[2]; [6]
  inhibition at 5 mg/kg: 58.3%
[2]; Rattus norvegicus, stress ulcer, rats, oral, dosage 15 mg/kg, read-out: Inhibition factor (%)
  inhibition at 15 mg/kg: 87.5%
[2]; [7]
  ED50: 4 mg/kg

## CCCCCC(=O)CC[C@H]1[C@H](O)CC(=O)[C@@H]1CC(=O)CCCCC(=O)OCC [(9)]
[1]; [3]
  inhibition at 1 mg/kg: 37.5%
[1]; [4]
  inhibition at 3 mg/kg: 50.5%
[1]; [5]
  ED50: 3 mg/kg
[1]; dosage 1 mg/kg
  Ulcer index (aver. ± SE): 2.1±0.3
[1]; dosage 3 mg/kg
  Ulcer index (aver. ± SE): 1.5±0.3
[2]; [6]
  inhibition at 0.3 mg/kg: 37.5%
  inhibition at 1 mg/kg: 75%
[2]; [7]
  ED50: 0.45 mg/kg
